Experimental data as given in patent publication US20260193285A1, “GRAMINE-PLATINUM (IV) COMPLEX AS WELL AS PREPARATION METHOD THEREFOR AND ANTI-TUMOR USE THEREOF” (TIANJIN MEDICAL UNIVERSITY CANCER INSTITUTE & HOSPITAL, priority 2022, published 2026).
Values joined by “and” are separate entries in the source; they are usually repeats but may differ in a detail not shown here. Identical values can stand only once.

Assays:
4T1-Luc tumor model = experiment: In vivo anti-tumor activity, breast cancer 4T1-Luc tumor model; settings: for final survival rate: dead includes body weight decrease of more than 20%
Procedure: Firstly, a 4T1-Luc tumor model was established using Balb/c female mice 4-5 weeks old. After the tumor volume reached […], the mice were randomly divided into four groups, namely Solvent, Cisplatin, Cisplatin+Gramine, and Compound c groups, respectively. The drugs were formulated at a Pt concentration of 2.0 mg/kg, once every 3 days and six times in total, while the body weight and tumor volume of the mice were measured every 2 days. The mice were sacrificed and the organs (heart, liver, spleen, lung, kidney) and tumors thereof were excised. The organs and tumors were used for H&E staining, immunohistochemical staining, and ICP-MS determination of platinum content.

[1] = tested on: Patient-derived xenografts (PDXs) of pancreatic cancer; experiment: In vivo anti-tumor activity, pancreatic cancer PDX model; settings: for final survival rate: dead includes body weight decrease of more than 20%; for tumor inhibition rate at the treatment endpoint: Pt 3.0 mg/kg once every 3 days, five times
Procedure: Patient-derived xenografts (PDXs) were used. Fresh tumor tissue from a patient was treated and transplanted subcutaneously into the groin of immunodeficient NOD-SCID IL-2 receptor gamma null (NSG) mice. […] The successfully transplanted tumor was passaged for 3 passages or more in NSG mice to obtain mouse models for experiments. […] The drugs were formulated at a Pt concentration of 3.0 mg/kg, once every 3 days and five times in total, while the body weight and tumor volume of the mice were measured every 3 days. The mice were sacrificed and the organs (heart, liver, spleen, lung, kidney) and tumors thereof were excised. The organs and tumors were used for ICP-MS determination of platinum content.

KPC tumor model = experiment: In vivo anti-tumor activity, pancreatic cancer KPC model; settings: for final survival rate: dead includes body weight decrease of more than 20%; for tumor inhibition rate at the treatment endpoint: Pt 3.0 mg/kg once every 3 days, five times; for PD-1 level in tumors (flow cytometry): solvent control 15.7%
Procedure: Firstly, a KPC tumor model was established using C57BL/6 female mice 4-5 weeks old. […] The drugs were formulated at a Pt concentration of 3.0 mg/kg, once every 3 days and five times in total, while the body weight and tumor volume of the mice were measured every 3 days. The mice were sacrificed and the organs (heart, liver, spleen, lung, kidney) and tumors thereof were excised. The tumors were used for flow cytometry to determine the content of immune cells.

LO2 (human liver cells) = experiment: Cytotoxicity (MTT) on normal cell line LO2; assay type: cell-based; settings: 72 hours
From the text: (§1) In this assay, the anti-tumor activity of the synthesized compounds was studied by MTT (3-(4,5-dimethylthiazolyl-2)-2,5-diphenyltetrazolium bromide) method. Eight kinds of cancer cells including MDA-MB-231 (human breast cancer cells), MCF-7 (human breast cancer cells), HCT-116 (human colon cancer cells), HeLa (human cervical cancer cells), FaDu (human pharyngeal squamous carcinoma cells), 5637 (human bladder cancer cells), OVCAR3 (human ovarian cancer cells), HCCC9810 (human liver cancer cells) and one normal human cell line LO2 (human liver cells) were used in this assay to perform experimental research on cytotoxicity. All cell lines were cultured in an incubator with 5% CO2 and saturated humidity at 37° C. The specific experimental steps were as follows:
(§2) The cells in logarithmic growth phase were collected, counted, adjusted to a cell concentration of 3× 10^4 cells/mL, and then seeded into a 96-well plate at 100 μL/well. The blank group (Blank, pure medium group) and the control group (Control, no drug group) were set up. The plate was cultured overnight in a cell culture incubator. After adhesion, the compounds were diluted with culture medium and added to the first column of administration wells at a desired concentration for these wells, followed by the 2-fold serial dilution and administration in subsequent wells, and pipetted gently to mix well. After incubation for 72 hours, 10 μL of MTT solution (5 mg/mL) was added to each well. After cultivation in the incubator for another 4 hours, the supernatant was removed, and DMSO was added at 100 μL/well. After shaking thoroughly, the OD value was measured using a microplate-reader at […]. Three independently repeated experiments were carried out to ensure the reliability of the experimental results.

[2] = tested on: MDA-MB-231 (human breast cancer cells); experiment: In vitro anti-tumor activity assay (MTT), MDA-MB-231; assay type: cell-based; settings: for IC50: 72 hours, MTT, average of multiple measurements
From the text: as §1, §2

[3] = tested on: MCF-7 (human breast cancer cells); experiment: In vitro anti-tumor activity assay (MTT), MCF-7; assay type: cell-based; settings: average of multiple measurements
From the text: as §1, §2

[4] = tested on: HCT-116 (human colon cancer cells); experiment: In vitro anti-tumor activity assay (MTT), HCT-116; assay type: cell-based; settings: average of multiple measurements
From the text: as §1, §2

[5] = tested on: HeLa (human cervical cancer cells); experiment: In vitro anti-tumor activity assay (MTT), HeLa; assay type: cell-based; settings: 72 hours, average of multiple measurements
From the text: as §1, §2

[6] = tested on: pancreatic cancer cells MIA-PaCa2; experiment: CCK-8 inhibition of pancreatic cancer cells, MIA-PaCa2; assay type: cell-based; settings: CCK-8, 72 hours
Procedure: (§3) In this experiment, CCK-8 was used to study the proliferation activity of pancreatic cancer cells SU86.86, MIA-PaCa2, SW1990, CFPAC-1 and BxPC-3. All cell lines were cultured in an incubator with 5% CO2 and saturated humidity at 37° C. The experimental steps were as follows:
(§4) The cells in logarithmic growth phase were collected, counted, adjusted to a cell concentration of 3×10^4 cells/mL, and then seeded into a 96-well plate at 100 μL/well. The blank group (Blank, medium group without cells) and the control group (Control, medium group with cells) were set up. After the cells in the culture plate were cultured overnight in the incubator with saturated humidity at 37° C. and adhered, the compounds were diluted with culture medium and added to the first column of administration wells at a desired concentration for these wells, followed by the 2-fold serial dilution and administration at 18 concentrations in total, and pipetted gently to mix well. After incubation for 72 hours, 10 μL of CCK8 solution (5 mg/mL) was added to each well. After cultivation in the incubator for another 4 hours, the OD value was measured using a microplate-reader at λ=450 nm.

[7] = tested on: pancreatic cancer cells SU86.86; experiment: CCK-8 inhibition of pancreatic cancer cells, SU86.86; assay type: cell-based; settings: CCK-8, 72 hours
Procedure: as §3, §4

[8] = tested on: pancreatic cancer cells BxPC-3; experiment: CCK-8 inhibition of pancreatic cancer cells, BxPC-3; assay type: cell-based; settings: CCK-8, 72 hours
Procedure: as §3, §4

[9] = tested on: pancreatic cancer cells SW1990; experiment: CCK-8 inhibition of pancreatic cancer cells, SW1990; assay type: cell-based; settings: CCK-8, 72 hours
Procedure: as §3, §4

[10] = tested on: pancreatic cancer organoids from patients; experiment: In vitro organoid activity assay, pancreatic cancer; assay type: cell-based, human; settings: 96 hours, CellTiter-Glo 3D, one value per case; read-out: IC50 in organoid models of 2 cases of pancreatic cancer
Procedure: (§5) The experimental steps were as follows:
(§6) Tumor samples were obtained from the patients undergoing surgery for breast cancer and pancreatic cancer, and digested with tumor dissociation kits. Tumor suspensions were collected and centrifuged to obtain tumor organoids. Complete culture medium for breast cancer or pancreatic cancer organoids was added to the organoid models which were cultured and passaged under the culture conditions of 5% CO2 and saturated humidity at 37° C. The organoids in logarithmic growth phase were collected, counted, resuspended in Matrigel at an organoid concentration of 5×10^4 cells/mL, and then seeded into a 96-well plate at 20 μL/well, followed by further addition of 80 μL of complete medium. The blank group (Blank, medium group without organoids) and the control group (Control, medium group with organoids) were set up. After the organoids were cultured overnight in an incubator with 5% CO2 at 37° C. and adhered, 200 μL of the culture medium containing the drug at a concentration of 20 μM was added to the first administration well, followed by the 2-fold serial dilution and administration, and pipetted gently to mix well. After incubation for 96 hours, representative photos were taken for each well using an inverted microscope, and 10 μL of CellTiter-Glo 3D Reagent (Promega) solution was added to each well to detect the organoid viability.

[11] = tested on: pancreatic cancer cells CFPAC-1; experiment: CCK-8 inhibition of pancreatic cancer cells, CFPAC-1; assay type: cell-based; settings: CCK-8, 72 hours
Procedure: as §3, §4

[12] = tested on: OVCAR3 (human ovarian cancer cells); experiment: In vitro anti-tumor activity assay (MTT), OVCAR3; assay type: cell-based; settings: 72 hours, average of multiple measurements, read-out: IC50 OVCRA3
From the text: as §1
(§7) The cells in logarithmic growth phase were collected, counted, adjusted to a cell concentration of 3× 10^4 cells/mL, and then seeded into a 96-well plate at 100 μL/well. The blank group (Blank, pure medium group) and the control group (Control, no drug group) were set up. The plate was cultured overnight in a cell culture incubator. […] After shaking thoroughly, the OD value was measured using a microplate-reader at 2=570 nm. […]

[13] = tested on: 5637 (human bladder cancer cells); experiment: In vitro anti-tumor activity assay (MTT), 5637; assay type: cell-based; settings: 72 hours, average of multiple measurements
From the text: as §1, §7

[14] = tested on: FaDu (human pharyngeal squamous carcinoma cells); experiment: In vitro anti-tumor activity assay (MTT), FaDu; assay type: cell-based; settings: 72 hours, average of multiple measurements
From the text: as §1, §7

[15] = tested on: HCCC9810 (human liver cancer cells); experiment: In vitro anti-tumor activity assay (MTT), HCCC9810; assay type: cell-based; settings: 72 hours, average of multiple measurements, read-out: IC50 HCCC 9810
From the text: as §1, §7

[16] = tested on: breast cancer organoids from patients; experiment: In vitro organoid activity assay, breast cancer; assay type: cell-based, human; settings: 96 hours, CellTiter-Glo 3D, one value per case; read-out: IC50 in organoid models of 2 cases of breast cancer
Procedure: as §5, §6

[17] = 4T1-Luc, Pt 2.0 mg/kg once every 3 days, six times
[18] = pancreatic cancer PDX, Pt 3.0 mg/kg
[19] = pancreatic cancer KPC, Pt 3.0 mg/kg

Row | Molecule | H&E staining: damage to tumor tissues (4T1-Luc tumor model; 4T1-Luc, Pt 2.0 mg/kg) | final survival rate (4T1-Luc tumor model; 4T1-Luc, Pt 2.0 mg/kg) | final survival rate [1, 18] | final survival rate (KPC tumor model; [19]) | IC50 (LO2 (human liver cells)) | IC50 [6] | IC50 [7] | body weight change of mice [1, 18] | tumor inhibition rate at the treatment endpoint ([1]; pancreatic cancer PDX) | tumor inhibition rate at the treatment endpoint (KPC tumor model; pancreatic cancer KPC) | PD-1 level in tumors (flow cytometry) (KPC tumor model; [19]) | IC50 [8] | IC50 [9] | IC50 [2] | IC50 ([3]; 72 hours) | IC50 ([4]; 72 hours) | IC50 [11] | IC50 [5] | also measured
1 | CCCCCCCCCCCCNC(=O)[O][Pt]([NH2])([NH2])([Cl])([Cl])[O]C(=O)CCC(=O)n1cc(CN(C)C)c2ccccc21 [Compound c] | severe damage to tumor tissues | 100% | 100% | 100% |  |  |  |  |  |  |  |  |  |  |  |  |  |  | immunohistochemical staining of mouse spleens (CD4+, CD8+, Foxp3 Treg cells) (4T1-Luc tumor model; 4T1-Luc, Pt 2.0 mg/kg): increasing the number of CD4+ and CD8+ cells, while decreasing the number of Treg cells; tumor growth (tumor volume, tumor weight) (4T1-Luc tumor model; [17]): significantly inhibited tumor growth; platinum accumulation in tissues (ICP-MS) (4T1-Luc tumor model; mouse, in vivo): significantly decreased the accumulation in the kidney and spleen; body weight change of mice ([1]; mouse, in vivo): weight recovery and stability from Day 9 post-treatment; platinum accumulation in tissues (ICP-MS) ([1]; mouse, in vivo): significantly decreased the accumulation in the kidney and spleen; body weight change of mice (KPC tumor model; mouse, in vivo): substantially stable body weight
2 | CN(C)Cc1c[nH]c2ccccc12 [GM, gramine] |  |  |  |  | > 100 µM |  |  |  |  |  |  |  |  |  |  |  |  |  | IC50 ([2]; Homo sapiens, MDA-MB-231): > 100 µM; IC50 ([3]; Homo sapiens, MCF7, 72 hours): > 100 µM; IC50 ([4]; Homo sapiens, HCT-116, 72 hours): > 100 µM; IC50 ([5]; Homo sapiens, HeLa): > 100 µM
3 | O=C1[O][Pt]2([NH][C@@H]3CCCC[C@H]3[NH]2)[O]C1=O [OXP, oxaliplatin] |  |  | 60% |  | 27.2 µM | 2 µM | 8.02 µM | significant decline all the time | 68.82% | 64.76% | 21.0% | 1.37 µM | 2.8 µM | 28.2 µM | 17.5 µM | 9.98 µM | 200 µM | 14.6 µM | IC50 [10]: 12.7 µM and > 20 µM
4 | cisplatin [CDDP] | severe damage to tumor tissues | 16.67% | 40% | all died finally | 3.99 µM | 500 µM | 127 µM | significant decline all the time | 32.68% | 55.67% | 24.3% | 420 µM | 500 µM | 15.8 µM | 5.9 µM | 8.79 µM | 603 µM | 4.94 µM | H&E staining: damage to mouse organs (4T1-Luc tumor model; 4T1-Luc, Pt 2.0 mg/kg): severe damage to the spleen, kidney, and liver; body weight change of mice (4T1-Luc tumor model; [17]): significant decline; body weight change of mice (KPC tumor model; [19]): more significant decline; IC50 [12]: 1.93 µM; selectivity index IC50 (LO2)/IC50 (MDA-MB-231) ([2]; tumor cell line MDA-MB-231 versus normal cell line LO2): 0.25; IC50 [13]: 1.35 µM; IC50 [14]: 1.57 µM; IC50 [15]: 5.55 µM; IC50 [16]: > 20 µM
